The values that follow come from paper PMC6099735, “Piplartine Analogues and Cytotoxic Evaluation against Glioblastoma” (Molecules : A Journal of Synthetic Chemistry and Natural …, 2018).

In brackets after ≈: the same amount, converted by molar mass.

The subject of series [1] is U87MG cells. The series can be described thus: MTT cell viability assay, cytotoxic activity against proliferation of U87MG cells. The class given is cell-based, human. The settings on record: Homo sapiens, U-87 MG, MTT assay, 48 h exposure, 0.78-50 μg/mL, mean ± SEM of four experiments. As to the method: To evaluate the cytotoxic potential of compounds 2–19 against human U87MG, glioblastoma cells were used with several concentrations (0 to 50 μg/mL). After 48 h of incubation, cell viability rates were established by MTT and LDH analysis. IC50 values of each analogue were determined due to observed cell viability results after MTT assay. All tested analogues led to inhibition of cellular proliferation rates as compared to untreated cells in a clear concentration and compound type dependent manners, as illustrated in Table 1 and Figure 2.
Human glioblastoma (GBM) cell line U87MG (American Type Culture Collection; Rockville, MD, USA) within passage number 15–20 were grown in an incubator at 37 °C in a humidified atmosphere of 5% CO2. They were grown in Eagle’s Minimal Essential Medium from Sigma-Aldrich (Saint Louis, MO, USA), supplemented with 10% fetal bovine serum (FBS) and 100 μg/mL of each of the following antibiotics: penicillin and streptomycin [66].
To examine the effects of compounds on cell viability, an MTT assay was performed. U87MG cells were seeded at 1 × 10^4 cells per well in 96-well plate and allowed to attach for 24 h. Then the cells were exposed to different concentrations of 2–19 (0.78, 1.56, 3.125, 6.25, 12.5, 25 and 50 μg/mL) for 48 h. All the compounds were dissolved in dimethyl sulfoxide (DMSO), and diluted in serum-free culture medium. After the incubation, a 3-(4,5-dimethylthiazol-2-yl)-2,5-diphenyltetrazolium bromide (MTT) solution was applied to cell cultures according to the manufacturer’s instructions (Cayman Chemical Company®, Ann Arbor, MI, USA). After 3 h of incubation, MTT-formazan crystals were dissolved in DMSO and absorbance was measured at 570 nm on a plate reader and compared with control, untreated cells. The half-maximal inhibitory concentration values (IC50) were determined by MTT assay performed in four replicates.
On the technique in general: Tetrazolium assays rely on reduction of a dye to a coloured formazan, in cell work by metabolically active cells.

Series [2] deals with HeLa (human cervical carcinoma). Also noted: method as in PMID 25920262. The settings on record: MTT test; cited from earlier work.
For series [3], the system named is BF16F10-Nex2 (murine melanoma). On the set-up: method as in PMID 25920262. The settings on record: MTT test; cited from earlier work.
Series [4] concerns HL-60 (human leukemic cell). On the set-up: method as in PMID 25920262. The settings on record: MTT test; cited from earlier work.

The melting point is the temperature of the solid-liquid transition. What is called IC50 is the concentration needed to halve the response being measured. In the case of `CCCCOC(=O)/C=C/c1cc(OC)c(OC)c(OC)c1` [Compound 5, (E)-Butyl-3-(3,4,5-trimethoxyphenyl)acrylate], the melting point was 74 to 75 °C. In addition, in series [1], the concentration for half-maximal inhibition (IC50) turned out to be 57.9 ± 0.71 µg/mL (≈ 197 µM).

For the molecule `CCCCNC(=O)/C=C/c1cc(OC)c(OC)c(OC)c1` [Compound 14, (E)-N-Butyl-3-(3,4,5-trimethoxyphenyl)acrylamide], the melting point lay within 225 to 226 °C. The same molecule came in with an IC50 in series [1] of 13.2 ± 0.32 µg/mL (≈ 45 µM).

As for `COc1cc(/C=C/C(=O)NCc2ccc(C)cc2)cc(OC)c1OC` [Compound 16, (E)-N-(4-Methylbenzyl)-3-(3,4,5-trimethoxyphenyl)acrylamide], the melting point lay in the range of 203 to 205 °C. In series [1], this molecule displayed a concentration for half-maximal inhibition (IC50) of 22.7 ± 0.34 µg/mL (≈ 66.6 µM).

In turn, `COc1cc(/C=C/C(=O)NCc2ccc(Cl)cc2)cc(OC)c1OC` [Compound 18, (E)-N-(4-Chlorobenzyl)-3-(3,4,5-trimethoxyphenyl)acrylamide] came in with a melting point of 215 to 218 °C. In addition, the IC50 in series [1] amounted to 43.4 ± 0.48 µg/mL (≈ 120 µM).

Consider `COc1cc(/C=C/C(=O)OCCc2ccccc2)cc(OC)c1OC` [Compound 12, (E)-Phenethyl 3-(3,4,5-trimethoxyphenyl)acrylate], for which the IC50 in series [1] amounted to 24.8 ± 0.37 µg/mL (≈ 72.4 µM).

Regarding `COc1cc(/C=C/C(=O)OCCc2ccc(C)cc2)cc(OC)c1OC` [Compound 13, (E)-4-Methylphenethyl 3-(3,4,5-Trimethoxyphenyl)acrylate], it took 30.3 ± 0.35 µg/mL (≈ 85.1 µM) to reach half-maximal inhibition in series [1] (IC50).

The molecule `CCCCCCCCCCOC(=O)/C=C/c1cc(OC)c(OC)c(OC)c1` [Compound 7, (E)-Decyl-3-(3,4,5-trimethoxyphenyl)acrylate] yielded a melting point of 37 to 38 °C. Moreover, half-maximal inhibition in series [1] (IC50) required 34.9 ± 0.54 µg/mL (≈ 92.3 µM).

The molecule `COc1cc(/C=C/C(=O)Oc2cc(C(C)C)ccc2C)cc(OC)c1OC` [Compound 11, (E)-Carvacryl-3-(3,4,5-trimethoxyphenyl)acrylate] returned a melting point of 145 to 146 °C. For the same molecule, the concentration for half-maximal inhibition (IC50) in series [1] is 26.7 ± 0.47 µg/mL (≈ 72.1 µM).

For the molecule `CCN(CC)C(=O)/C=C/c1cc(OC)c(OC)c(OC)c1` [Compound 19, (E)-N,N-Diethyl-3-(3,4,5-trimethoxyphenyl)acrylamide], the melting point is 197 to 198 °C. The IC50 in series [1] amounted to 36.1 ± 0.44 µg/mL (≈ 123 µM).

In the case of `COC(=O)/C=C/c1cc(OC)c(OC)c(OC)c1` [Compound 2, (E)-Methyl-3-(3,4,5-trimethoxyphenyl)acrylate], the melting point fell in the range of 135 to 136 °C. In series [1], this molecule yielded a half-maximal inhibitory concentration (IC50) of 85.13 ± 0.78 µg/mL (≈ 337 µM).

Regarding `COc1cc(/C=C/C(=O)NCc2ccccc2)cc(OC)c1OC` [Compound 15, (E)-N-Benzyl-3-(3,4,5-trimethoxyphenyl)acrylamide], the midpoint of inhibition in series [1], the IC50, lay at 33.1 ± 0.41 µg/mL (≈ 101 µM).

For the molecule piplaroxide, the cytotoxic activity result in series [2], in series [3] and in series [4] was “moderate activity” each time.

For the molecule `CC(=O)O[C@H]1C(=O)[C@@]2(C)[C@H]([C@H](OC(=O)c3ccccc3)[C@]3(O)C[C@H](OC(=O)[C@H](O)[C@@H](NC(=O)c4ccccc4)c4ccccc4)C(C)=C1C3(C)C)[C@]1(OC(C)=O)CO[C@@H]1C[C@@H]2O` [paclitaxel, reference compound], the IC50 in series [1] worked out at 2.12 µg/mL (≈ 2.48 µM).

The molecule `CCOC(=O)/C=C/c1cc(OC)c(OC)c(OC)c1` [Compound 3, (E)-Ethyl-3-(3,4,5-trimethoxyphenyl)acrylate] showed a 50% inhibitory concentration (IC50) in series [1] of 100 ± 1.12 µg/mL (≈ 376 µM).

In the case of `CCCCCOC(=O)/C=C/c1cc(OC)c(OC)c(OC)c1` [Compound 6, (E)-Pentyl 3-(3,4,5-trimethoxyphenyl)acrylate], the melting point was in the range of 105 to 106 °C. Besides, the IC50 in series [1] came out at 31.7 ± 0.48 µg/mL (≈ 103 µM).

`COCCOC(=O)/C=C/c1cc(OC)c(OC)c(OC)c1` [Compound 8, (E)-2-Methoxyethyl-3-(3,4,5-trimethoxyphenyl)acrylate] came in with a melting point of 60 to 62 °C. The molecule further had an IC50 in series [1] of 50.1 ± 0.62 µg/mL (≈ 169 µM).

`CCCOC(=O)/C=C/c1cc(OC)c(OC)c(OC)c1` [Compound 4, (E)-Propyl-3-(3,4,5-trimethoxyphenyl)acrylate] came in with a 50% inhibitory concentration (IC50) in series [1] of 78.39 ± 0.69 µg/mL (≈ 280 µM).

Regarding `COc1cc(/C=C/C(=O)OC(C)C)cc(OC)c1OC` [Compound 9, (E)-Isopropyl 3-(3,4,5-Trimethoxyphenyl)acrylate], the half-inhibitory concentration (IC50) in series [1] is 81.43 ± 0.55 µg/mL (≈ 291 µM).

For `COc1ccc(CNC(=O)/C=C/c2cc(OC)c(OC)c(OC)c2)cc1` [Compound 17, (E)-N-(4-Methoxybenzyl)-3-(3,4,5-trimethoxyphenyl)acrylamide], the melting point lay in the range of 225 to 226 °C. In series [1], this molecule showed an IC50 of 22.7 ± 0.39 µg/mL (≈ 63.4 µM).
